Measurements published in patent US20100003711A1, “Methods to identify therapeutic agents” (THE SCRIPPS RESEARCH INSTITUTE, priority 2005, published 2010).

What was measured:
[1] = tested on: leukocyte cell lines; experiment: Cytotoxicity to leukocyte cell lines (similar procedures); type: cell-based
Experimental: Cytotoxicity assays. WI-L2 human B-lymphocyte line, HAAE-1 human abdominal aortic endothelial line, MH-S murine alveolar macrophage line, and J774A.1 murine tissue macrophage line were obtained from the ATCC. Human aortic endothelial cells (HAEC) and human vascular smooth muscle cells (VSMS) were obtained from Cambrex Bio Science. Jurkat E6-1T-lymphocytes were kindly provided by Dr. J. Kaye (The Scripps Research Institute). Cells were cultured in ATCC-recommended media with 10% fetal calf serum. Cells were incubated in a controlled atmosphere at 37° C., with 5 or 7% CO2. For lactate dehydrogenase (LDH) release assays, adherent cells were harvested either by addition of 0.05% trypsin/EDTA or by scraping. The cells obtained were seeded onto 96-well microtiter plates (25,000 cells/well) and allowed to recover for 24-48 h. Cells were washed gently and media replaced with fresh media containing 5% fetal calf serum. […] Cytotoxicity was then determined by measuring lactate dehydrogenase (LDH) release from cells in culture. […] 100% Cytotoxicity was defined as the maximum amount of LDH released by dead cells as shown by trypan blue exclusion, or the highest amount of LDH detected upon lysis of cells by 0.9% Triton X-100. The IC50 values were determined by comparison of the raw duplicate data for concentration versus cytotoxicity (%) to non-linear regression analysis (Hill plot) using Graphpad v3.0 software for Macintosh.

[2] = tested on: THP-1 monocytes; experiment: Monocyte morphology changes (differentiation into macrophages); type: cell-based, human; details: 12.5 or 25 μM, up to 7 days
Experimental: THP-1 monocytes in suspension were plated in 8-well chambered slides. […] Media containing appropriate treatment compounds was replaced after 4 days. After 4 days treatment, morphologic changes of the adherent cells were assessed by phase-contrast microscopy and photographed using an Olympus Microfire digital camera.

[3] = tested on: neuronal cell lines; experiment: Cytotoxicity towards neuronal cell lines (similar procedures); type: cell-based
[4] = tested on: Class A scavenger receptor (SR-A); experiment: Scavenger receptor expression by flow cytometry, SR-A; type: cell-based, murine; details: cultured macrophages, compound in the absence of LDL
Experimental: Cell surface CD36 and SR-A were measured by flow cytometry using CD36 (BD Biosciences Pharmingen, San Diego, Calif.) and CD204 (Serotec, Oxford, UK) specific monoclonal antibodies. See Liao et al. (2000) Arterioscler. Thromb. Vasc. Biol. 20: 1968-75; Hu et al. (1996) Blood 87: 2020-28. Murine macrophage J774A.1 cells were serum-starved overnight in media with 0.5% BSA. Cells (1×10^6) treated with cholesterol ozonation products or cholesterol ozonation product complexed with LDL for specified times were then washed twice with PBS. […] Expression of either CD36 or SR-A was determined with CD36 (BD Biosciences Pharmingen, San Diego, Calif.) and CD204 (Serotec, Oxford, U.K.) specific monoclonal antibodies, respectively. After washing off the primary antibody, secondary antibodies were added, cells were washed again, then analyzed on a FACS calibur 2 (Becton Dickinson, Sparks, Md.) flow cytometer and analyzed by CellQuant software. Results were expressed as mean fluorescence intensity±standard error of the mean (SEM) of at least duplicate determinations. Significance was determined using a student two-tail t test, with (*) indicating p<0.05, and (**) indicating p<0.01 versus the control.

[5] = Decrease of extractable 5a in stored plasma; type: in vitro ADME; details: stored human plasma, preliminary investigations
Experimental: Plasma samples were obtained from patients (n=8) who were scheduled to undergo carotid endarterectomy within 24 h. […] Control plasma samples were obtained from random patients (n=15) attending a general medical clinic and were analyzed 7 days after collection. In a typical procedure, plasma in EDTA (1 ml) was washed with dichloromethane (DCM, 3×1 mL). The combined organic fractions were evaporated in vacuo. The residue was dissolved in methanol (0.9 mL) and a solution of 2,4-dinitrophenyl hydrazine (100 μL, 0.01 M, Lancaster) and 1N HCl in ethanol was added. Nitrogen was bubbled through the solution for 5 min and then the solution was stirred for 2 h. The resultant solution was filtered through a 0.22 μm filter and the filtrate was analyzed by the HPLC assay vide supra.

[6] = tested on: murine macrophage J774A.1; experiment: Modified Boyden chamber migration (chemotaxis) assay; type: cell-based
Experimental: Chemotaxis and invasion assays were performed using a modified Boyden chamber migration assay. Zwirner et al. (1998) Eur. J. Immunol. 28: 1570-77; Wilkinson (1988) Methods Enzymol. 162: 38-50. Assays were set up on MultiScreen-MIC plates (Millipore, Billerica, Mass., USA) with polyvinylpyrrolidone-free polycarbonate membranes (5 μm pore size). Cells (murine macrophage J774A.1) were washed and resuspended in serum-free DMEM containing 0.2% BSA at 1×10^6 cells/ml. Fifty microliters of cells were added to the upper wells and 150 μl of chemoattractant in DMEM/0.2% BSA were added to the lower wells of the microchamber. Incubation time was for 4 h at 37° C. in an 8% CO2 atmosphere. After swiping cells off the upper side of the membrane, cells on the lower side were visualized by either staining and phase contrast microscopy, or fluorescence. Cells that had adhered to the membrane were stained using a DiffQuik staining kit (Dade Behring, Newark, Del.). Each experiment was performed in triplicate and the numbers of migrating cells were counted in five fields at ×200. Cells harvested with PBS-EDTA for fluorescent labeling were washed two times with PBS, then resuspended in serum-free medium containing calcein AM (5 μM). Cells were incubated for 30 min (37° C., 5% CO2) with gentle intermittent mixing. Calcein-labeled cells were washed twice, and calcein fluorescence ([…]) was measured using a SPECTRAmax™ GEMINI dual-scanning microplate spectrofluorometer. Fluorescence measurements were compared to a standard curve, generated by dilution of cells in PBS/BSA in 100 μl, dispensed into 96-well plates. Fluorescence was quantified as described above.

[7] = tested on: U-937 monocytes cells; experiment: Monocyte adhesion to endothelial cell monolayers by fluorescence spectroscopy; type: cell-based; details: alone or in complex with LDL
[8] = tested on: J774.1 macrophages; experiment: Lipid-loading assay (foam cell formation); type: cell-based, murine; details: LDL 100 μg/mL with 4a or 5a (20 μM), 72 h, unactivated J774.1 macrophages
Experimental: Lipid-loading assay (foam cell formation). J774.1 macrophages were incubated in ATCC-recommended media containing 10% fetal bovine serum under a controlled atmosphere of 5 or 7% CO2 at 37° C., in 8-well chamber slides. […] At termination, cells were washed twice with PBS (pH 7.4). The cells were then fixed with 6% (v/v) paraformaldehyde in PBS for 30 minutes, rinsed with propylene glycol for 2 minutes and lipids were stained with 5 mg/ml Oil Red 0 for 8 minutes. The cells were counterstained with Harris' hematoxylin for 45 seconds, and background staining was removed with 6% paraformaldehyde followed by washing once in PBS and once in tap water. Cover slips were mounted onto the glass slides using glycerol and the slide preparations were examined by light microscopy. The number of lipid-laden cells was scored out of a total of at least 100 cells counted in a single field in each slide, and expressed as a percentage of total cells. Photographs were taken at 100× magnification.

[9] = tested on: VCAM-1 (CD106); experiment: Endothelial adhesion molecule expression by ELISA, VCAM-1; type: cell-based, human; details: HAAE-1, not complexed with LDL
Experimental: (§1) Endothelial cell surface adhesion molecule expression was measured by ELISA, using anti-human CD54 (ICAM-1), CD106 (VCAM-1) and CD62E (E-Selectin) antibodies (Leinco Technologies, Inc., St. Louis, Mo.). The ELISA method was modified from previously described procedures.
(§2) Cells were then incubated with antibodies to VCAM-1, E-selectin, or ICAM-1 diluted 1:400 in PBS containing 5% FCS at 37° C. for 30 min. Wells were washed two times with PBS, then incubated with horseradish peroxidase (HRP)-conjugated goat anti-mouse IgG (Southern Biotechnology Associates, Birmingham, Ala., USA) in PBS/5% FCS at 37° C. for 30 min. The wells were washed four times with PBS, then incubated with H2O2/3,3′,5,5′-tetramethyl-benzidine peroxidase substrate (Pierce Chemical, Rockford, Ill., USA) for 30 min in the dark. The reaction was stopped by adding 25 μl of 8 N H2SO4, and the plates read on a microplate reader, blanking on wells stained with only secondary antibody. Each assay was performed in triplicate and the data are reported as the mean±SEM as a percentage of the expression level of the vehicle. To study the effect of cholesterol ozonation product 5a concentration (5-50 μM) on E-selectin expression, the assay was performed in an identical fashion as described above, with each point being the mean±SEM of at least duplicate measurements.

[10] = tested on: CD36; experiment: Scavenger receptor expression by flow cytometry, CD36; type: cell-based, murine
Experimental: Cell surface CD36 and SR-A were measured by flow cytometry using CD36 (BD Biosciences Pharmingen, San Diego, Calif.) and CD204 (Serotec, Oxford, UK) specific monoclonal antibodies. See Liao et al. (2000) Arterioscler. Thromb. Vasc. Biol. 20: 1968-75; Hu et al. (1996) Blood 87: 2020-28. Murine macrophage J774A.1 cells were serum-starved overnight in media with 0.5% BSA. Cells (1×10^6) treated with cholesterol ozonation products or cholesterol ozonation product complexed with LDL for specified times were then washed twice with PBS. After harvesting the cells by scraping, they were fixed with 6% paraformaldehyde for 20 min; Cells were then resuspended in PBS containing 2% heat-inactivated FCS, 0.05% NaN3 and appropriate primary antibody, antibody conjugate or isotype control (1:100 dilution) and incubated on ice for 30 min. Expression of either CD36 or SR-A was determined with CD36 (BD Biosciences Pharmingen, San Diego, Calif.) and CD204 (Serotec, Oxford, U.K.) specific monoclonal antibodies, respectively. After washing off the primary antibody, secondary antibodies were added, cells were washed again, then analyzed on a FACS calibur 2 (Becton Dickinson, Sparks, Md.) flow cytometer and analyzed by CellQuant software. Results were expressed as mean fluorescence intensity±standard error of the mean (SEM) of at least duplicate determinations. Significance was determined using a student two-tail t test, with (*) indicating p<0.05, and (**) indicating p<0.01 versus the control.

[11] = tested on: ICAM-1 (CD54); experiment: Endothelial adhesion molecule expression by ELISA, ICAM-1; type: cell-based, human; details: HAAE-1, not complexed with LDL
Experimental: as §1, §2

[12] = molecular target: LDL / apoB-100 (Homo sapiens, UniProt P04114); experiment: Circular dichroism of LDL secondary structure; details: LDL 100 μg/ml with 10 μM compound, PBS pH 7.4, 37° C., up to 48 h; normal LDL ~40±2%
Sequence of LDL / apoB-100 (P04114 28-4563): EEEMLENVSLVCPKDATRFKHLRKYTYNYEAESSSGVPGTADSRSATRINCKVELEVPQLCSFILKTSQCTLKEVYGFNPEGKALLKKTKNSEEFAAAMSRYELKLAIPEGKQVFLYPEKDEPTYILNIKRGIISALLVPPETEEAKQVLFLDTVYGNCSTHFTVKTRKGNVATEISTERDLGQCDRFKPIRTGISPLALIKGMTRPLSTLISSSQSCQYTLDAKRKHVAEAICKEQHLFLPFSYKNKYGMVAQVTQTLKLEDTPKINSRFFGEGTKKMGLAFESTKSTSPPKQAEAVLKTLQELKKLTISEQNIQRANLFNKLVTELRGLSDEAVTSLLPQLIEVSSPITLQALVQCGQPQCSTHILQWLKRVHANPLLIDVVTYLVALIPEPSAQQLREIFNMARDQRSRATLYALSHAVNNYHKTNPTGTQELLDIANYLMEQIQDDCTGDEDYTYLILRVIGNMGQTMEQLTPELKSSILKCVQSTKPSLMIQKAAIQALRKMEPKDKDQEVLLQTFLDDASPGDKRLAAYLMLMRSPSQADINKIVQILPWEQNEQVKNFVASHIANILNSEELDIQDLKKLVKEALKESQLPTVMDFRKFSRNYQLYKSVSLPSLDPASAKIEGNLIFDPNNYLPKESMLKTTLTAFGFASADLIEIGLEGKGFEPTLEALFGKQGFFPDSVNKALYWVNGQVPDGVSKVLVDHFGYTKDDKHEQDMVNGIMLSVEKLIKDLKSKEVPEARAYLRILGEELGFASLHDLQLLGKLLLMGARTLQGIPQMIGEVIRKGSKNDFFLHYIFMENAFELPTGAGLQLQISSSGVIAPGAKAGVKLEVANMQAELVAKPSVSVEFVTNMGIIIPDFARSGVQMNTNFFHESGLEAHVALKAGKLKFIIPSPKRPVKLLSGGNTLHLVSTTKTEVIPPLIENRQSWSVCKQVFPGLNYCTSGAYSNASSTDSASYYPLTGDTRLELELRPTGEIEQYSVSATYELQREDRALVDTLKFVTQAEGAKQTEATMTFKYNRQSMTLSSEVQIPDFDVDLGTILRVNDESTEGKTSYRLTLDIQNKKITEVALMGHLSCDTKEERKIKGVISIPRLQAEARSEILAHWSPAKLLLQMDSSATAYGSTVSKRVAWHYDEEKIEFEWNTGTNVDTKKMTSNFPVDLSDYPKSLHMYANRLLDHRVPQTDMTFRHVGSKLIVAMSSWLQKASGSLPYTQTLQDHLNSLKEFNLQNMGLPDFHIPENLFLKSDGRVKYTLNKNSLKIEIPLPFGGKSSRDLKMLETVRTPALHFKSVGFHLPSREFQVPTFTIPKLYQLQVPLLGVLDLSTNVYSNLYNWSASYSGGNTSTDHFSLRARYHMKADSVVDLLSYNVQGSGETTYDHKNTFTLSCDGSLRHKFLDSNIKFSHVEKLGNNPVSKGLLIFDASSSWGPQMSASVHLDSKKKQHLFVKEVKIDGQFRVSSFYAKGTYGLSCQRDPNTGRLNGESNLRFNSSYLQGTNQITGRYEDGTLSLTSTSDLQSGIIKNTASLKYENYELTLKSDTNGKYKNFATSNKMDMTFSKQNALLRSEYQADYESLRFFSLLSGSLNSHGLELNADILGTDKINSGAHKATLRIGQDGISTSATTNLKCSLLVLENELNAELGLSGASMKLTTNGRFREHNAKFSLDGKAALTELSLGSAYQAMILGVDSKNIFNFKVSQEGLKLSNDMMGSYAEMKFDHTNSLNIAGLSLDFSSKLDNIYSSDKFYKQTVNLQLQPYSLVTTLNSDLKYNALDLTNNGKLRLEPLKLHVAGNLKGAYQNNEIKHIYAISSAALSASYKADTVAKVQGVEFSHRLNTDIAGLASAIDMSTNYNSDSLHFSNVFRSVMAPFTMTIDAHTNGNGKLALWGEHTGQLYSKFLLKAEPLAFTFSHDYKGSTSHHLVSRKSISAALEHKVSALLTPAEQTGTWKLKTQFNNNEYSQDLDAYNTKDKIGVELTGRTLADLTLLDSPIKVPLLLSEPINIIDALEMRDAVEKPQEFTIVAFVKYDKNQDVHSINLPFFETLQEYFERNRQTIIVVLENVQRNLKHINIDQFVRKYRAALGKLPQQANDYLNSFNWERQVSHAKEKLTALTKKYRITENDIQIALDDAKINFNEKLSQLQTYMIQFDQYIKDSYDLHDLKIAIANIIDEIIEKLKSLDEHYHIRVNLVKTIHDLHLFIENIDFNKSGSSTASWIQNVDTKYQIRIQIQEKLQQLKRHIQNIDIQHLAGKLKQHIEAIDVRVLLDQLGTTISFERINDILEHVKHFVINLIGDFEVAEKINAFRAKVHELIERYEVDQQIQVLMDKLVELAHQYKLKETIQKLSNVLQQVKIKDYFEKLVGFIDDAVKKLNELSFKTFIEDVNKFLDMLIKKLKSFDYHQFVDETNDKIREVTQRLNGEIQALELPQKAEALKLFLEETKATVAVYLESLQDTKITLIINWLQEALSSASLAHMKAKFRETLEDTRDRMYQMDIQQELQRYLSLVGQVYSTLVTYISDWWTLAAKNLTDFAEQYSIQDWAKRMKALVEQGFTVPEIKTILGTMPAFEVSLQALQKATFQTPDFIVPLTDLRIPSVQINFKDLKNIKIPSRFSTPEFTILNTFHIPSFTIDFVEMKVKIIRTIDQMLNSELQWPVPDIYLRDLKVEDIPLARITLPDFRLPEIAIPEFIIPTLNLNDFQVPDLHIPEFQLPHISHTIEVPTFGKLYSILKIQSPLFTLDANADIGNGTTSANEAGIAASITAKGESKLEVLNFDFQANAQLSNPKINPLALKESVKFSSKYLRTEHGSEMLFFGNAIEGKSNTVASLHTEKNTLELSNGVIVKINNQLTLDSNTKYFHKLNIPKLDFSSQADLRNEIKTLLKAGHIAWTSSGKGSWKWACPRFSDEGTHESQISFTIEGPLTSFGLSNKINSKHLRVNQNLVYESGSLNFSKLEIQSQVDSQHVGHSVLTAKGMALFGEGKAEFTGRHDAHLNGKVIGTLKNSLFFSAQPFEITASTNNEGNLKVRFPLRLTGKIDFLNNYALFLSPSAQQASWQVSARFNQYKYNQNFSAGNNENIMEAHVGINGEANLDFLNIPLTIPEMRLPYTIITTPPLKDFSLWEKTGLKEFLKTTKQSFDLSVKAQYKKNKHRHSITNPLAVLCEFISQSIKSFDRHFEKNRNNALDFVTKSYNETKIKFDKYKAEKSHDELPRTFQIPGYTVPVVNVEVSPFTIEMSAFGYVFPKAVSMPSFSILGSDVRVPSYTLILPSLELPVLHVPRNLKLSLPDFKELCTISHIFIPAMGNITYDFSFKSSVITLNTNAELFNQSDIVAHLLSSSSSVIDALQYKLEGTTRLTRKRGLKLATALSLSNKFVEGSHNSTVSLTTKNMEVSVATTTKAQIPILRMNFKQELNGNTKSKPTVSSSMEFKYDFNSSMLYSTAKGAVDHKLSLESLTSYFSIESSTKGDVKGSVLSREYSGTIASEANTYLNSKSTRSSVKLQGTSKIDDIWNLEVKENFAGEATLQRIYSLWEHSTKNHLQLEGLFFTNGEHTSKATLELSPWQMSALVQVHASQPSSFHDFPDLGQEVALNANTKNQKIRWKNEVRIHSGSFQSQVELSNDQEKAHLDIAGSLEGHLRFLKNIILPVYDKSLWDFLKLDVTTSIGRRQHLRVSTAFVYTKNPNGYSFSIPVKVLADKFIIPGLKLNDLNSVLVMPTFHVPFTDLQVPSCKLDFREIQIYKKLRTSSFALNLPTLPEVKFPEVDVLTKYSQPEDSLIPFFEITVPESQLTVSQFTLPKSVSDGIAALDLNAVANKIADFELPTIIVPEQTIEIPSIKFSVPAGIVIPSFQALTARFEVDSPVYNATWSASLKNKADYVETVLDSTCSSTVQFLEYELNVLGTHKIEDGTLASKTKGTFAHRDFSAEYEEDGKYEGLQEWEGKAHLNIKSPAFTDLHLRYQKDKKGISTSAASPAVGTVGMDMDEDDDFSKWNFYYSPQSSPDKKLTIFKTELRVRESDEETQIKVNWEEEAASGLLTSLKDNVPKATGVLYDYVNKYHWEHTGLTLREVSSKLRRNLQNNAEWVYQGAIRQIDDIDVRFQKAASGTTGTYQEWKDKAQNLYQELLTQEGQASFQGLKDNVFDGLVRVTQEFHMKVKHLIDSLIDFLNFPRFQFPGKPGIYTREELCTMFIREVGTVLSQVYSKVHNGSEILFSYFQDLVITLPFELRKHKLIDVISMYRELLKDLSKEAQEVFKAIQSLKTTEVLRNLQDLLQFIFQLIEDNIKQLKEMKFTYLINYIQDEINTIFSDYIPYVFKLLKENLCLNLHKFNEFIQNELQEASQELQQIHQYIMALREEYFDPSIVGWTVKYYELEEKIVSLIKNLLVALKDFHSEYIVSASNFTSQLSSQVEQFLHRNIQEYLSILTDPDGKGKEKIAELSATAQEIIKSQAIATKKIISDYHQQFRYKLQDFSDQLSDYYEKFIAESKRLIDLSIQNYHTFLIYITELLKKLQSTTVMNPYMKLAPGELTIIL
Experimental: Spectra were recorded in the peptidic range (200-260 nm). To increase the signal-to-noise ratio, multiple spectra (three) were averaged for each measurement. The deconvolution of the molar elipticity spectra for each measurement was performed using the CDPro suite of software (by Narasimha Sreerama from Colorado State University) on a Dell PC.

[13] = tested on: E-selectin (CD62E); experiment: Endothelial adhesion molecule expression by ELISA, E-selectin; type: cell-based, human; details: HAAE-1, not complexed with LDL
Experimental: as §1, §2

CC(C)CCC[C@@H](C)[C@H]1CCC2C3C(CC[C@@]21C)[C@@]1(C)CCC=C[C@@]1(O)[C@@H]3CO (stereo partly shown) [7c]
cytotoxicity to leukocyte cell lines [1]: cytotoxic

CC(C)CCC[C@@H](C)[C@H]1CCC2C3C(CC[C@@]21C)[C@@]1(C)CC[C@H](O)C[C@@]1(O)[C@@H]3C=O (stereo partly drawn) [5a, 3β-Hydroxy-5β-hydroxy-B-norcholestane-6βcarboxaldehyde]
THP-1 monocyte differentiation into macrophages (adherence, morphology) [2]: displayed hypertrophy, developed cytoplasmic vacuoles, and formed extended processes, all characteristic of mature macrophages | cytotoxicity towards neuronal cell lines [3]: cytotoxic | SR-A expression [4]: did not increase expression of either receptor | decrease of the amount of 5a that can be extracted from plasma [5]: about 5 % per day | recruitment (migration) of macrophages ([6]; 0-25 μM, 4 h, P<0.001): dose-dependent recruitment of macrophages | migration of macrophages ([6]; compound co-incubated with BSA): macrophage migration still occurs | migration of macrophages ([6]; compound complexed with native LDL (100 μg/ml)): no significant migration | adhesion of U-937 monocytes to endothelial cell monolayers, above that of LDL alone [7]: neither ozonolysis product 4a nor 5a, alone or in complex with LDL, nor CuOx-LDL significantly increased adhesion | lipid-loading of macrophages / foam cell formation [8]: began lipid-loading and foam cells began to appear | integrin expression (VCAM-1) [9]: no effects | CD36 expression ([10]; J774A.1, 25 μM compound complexed with LDL (100 μg/ml protein), 6 h): little or no effect | CD36 expression ([10]; cultured macrophages, compound in the absence of LDL): did not increase expression of either receptor | integrin expression (ICAM-1) [11]: no effects | a helical structure of LDL [12]: ~20±2% | selectin (E-selectin) expression [13]: no effects

CC(C)CCC[C@@H](C)[C@H]1CCC2C3C(C=O)=C4C=CCC[C@]4(C)C3CC[C@@]21C (stereo partly shown) [12a, B-norcholest-3,5-diene-6-carboxaldehyde]
cytotoxicity to leukocyte cell lines [1]: cytotoxic

CC(C)CCC[C@@H](C)[C@H]1CCC2[C@H](CC(=O)O)C([C@@]3(C)CC[C@H](O)CC3=O)CC[C@@]21C (stereo partly shown) [10a]
cytotoxicity to leukocyte cell lines [1]: cytotoxic

CC(C)CCC[C@@H](C)[C@H]1CC[C@H]2[C@@H]3C(=O)C=C4C[C@@H](O)CC[C@]4(C)[C@H]3CC[C@]12C [7-KC, 7-ketocholesterol, reference compound]
THP-1 monocyte differentiation into macrophages (adherence, morphology) [2]: began to adhere after 4 days

CC(C)CCC[C@@H](C)[C@H]1CCC2C(CC=O)C([C@@]3(C)CCC=CC3=O)CC[C@@]21C (stereo partly shown) [6a, 5-Oxo-5,6-secocholest-3-en-6-al]
cytotoxicity to leukocyte cell lines [1]: cytotoxic

CC(C)CCC[C@@H](C)[C@H]1CCC2[C@H](CC=O)C([C@@]3(C)CCCCC(=O)O3)CC[C@@]21C (stereo partly shown) [11a]
cytotoxicity to leukocyte cell lines [1]: cytotoxic

CC(C)CCC[C@@H](C)[C@H]1CCC2C3C(CC[C@@]21C)[C@@]1(C)CCC=C[C@@]1(O)[C@@H]3C=O (stereo partly drawn) [7a, 5β-Hydroxy-B-norcholest-3-ene-6β-carboxaldehyde]
cytotoxicity to leukocyte cell lines [1]: cytotoxic
